Data on 1 compound can be found in patent publication US20240132559A1, “COMPOSITIONS AND METHODS FOR MODULATING MYC EXPRESSION” (FLAGSHIP PIONEERING INNOVATIONS V, INC., priority 2020, published 2024).

By pIC50 is commonly meant the negative decadic logarithm of the IC50, by convention in mol/L.

pIC50: −log10 of the molar value.

For one test, the system named is SK-HEP-1 cells. As to the kind of experiment: Sorafenib dose response viability with bi-cistronic ZF9-MQ1_ZF3-KRAB (CellTiter-GLO). Particulars: Homo sapiens, SK-HEP1, 72 h, SKHEP-1, 72-hour. The format is cell-based. How it is done:
(§1) In this example, the effect of bi-cistronic ZF9-MQ1_ZF3-KRAB on the small molecule sorafenib (multi-kinase inhibitor) efficacy in HCC cell lines was evaluated. Sorafenib is used as a standard of care in HCC and high MYC levels can predict sorafenib resistance. It was hypothesized that bi-cistronic ZF9-MQ1_ZF3-KRAB may re-sensitize HCC to sorafenib through its downregulation of MYC. Dose response assays were utilized to evaluate if bi-cistronic ZF9-MQ1_ZF3-KRAB treatment could decrease the IC50 of sorafenib.
(§2) To evaluate potential synergy between bi-cistronic ZF9-MQ1_ZF3-KRAB and sorafenib, Hep 3B or SK-HEP-1 cells were plated in 96 well plates at 10,000 cells per well. Cells were then treated with sorafenib at a dose range between 0.1 and 25 μM, with serial dilution of 1:2. Lipid mix carrying bi-cistronic ZF9-MQ1_ZF3-KRAB was then added to a subset of the wells at a dose of 0.1 or 0.6 μg/mL. A set of cells was treated with sorafenib alone to use as control. Following 72-hour treatment, cells were lysed with the CellTiter-GLO® reagent and luminescence was quantified using the Glo Max. Relative cell viability was calculated by averaging the untreated values and dividing each experimental luciferase value by that average.
For orientation: In ATP-based viability assays light output follows the ATP content of the culture.

For a further test, the system named is Hep 3B cells. The description is as above. The format is cell-based. The settings on record: Homo sapiens, Hep3B, 72 h. As to the method:
as §1, §2

For another test, the system named is SKHEP1 and Hep 3B cells. As to the kind of experiment: IC50 of sorafenib or JQ1 in combination with bi-cistronic ZF9-MQ1_ZF3-KRAB. Particulars: for IC50 of sorafenib: in combination with 0.1 ug/ml bi-cistronic ZF9-MQ1_ZF3-KRAB; for pIC50: Homo sapiens. The format is cell-based, human.
For the next test, the system named is subcutaneous H460 tumors. Nature of the test: H460 subcutaneous tumor model in nude mice. The format is in vivo, mouse. The settings on record: 50 mg/kg daily. As to the method:
Disease was induced in nude mice by the implantation of subcutaneous H460 tumor cells into the left flank. Treatment was initiated when mean tumor volume reached approximately 100-150 mm^3. Mice were divided into treatment groups so that mean tumor volume in each group were approximately equal. Tumors were treated with PBS (vehicle), sorafenib (standard of care), non-coding RNA formulated in MC3 LNPs, or ZF9-MQ1 mRNA formulated in MC3 LNPs. PBS, Non-coding RNA (SEQ ID NO: 198) LNP and ZF9-MQ1 LNP were dosed at 3 mg/kg administered every five days. Sorafenib was dosed daily at 50 mg/kg. The length and width of tumors were measured twice weekly. Tumor volumes were calculated as (width^2×length)/2.

The mark [1] stands for this setting: bi-cistronic ZF9-MQ1_ZF3-KRAB 0 μg/ml.
Setting [2] is: bi-cistronic ZF9-MQ1_ZF3-KRAB 0.1 μg/ml.
Where [3] appears, read: bi-cistronic ZF9-MQ1_ZF3-KRAB 0.6 μg/ml.

For the compound `CNC(=O)c1cc(Oc2ccc(NC(=O)Nc3ccc(Cl)c(C(F)(F)F)c3)cc2)ccn1` [sorafenib], the pIC50 with SK-HEP-1 cells (setting [1]) was 4.91; in the test with SK-HEP-1 cells (setting [2]) it was 4.91; with SK-HEP-1 cells (setting [3]), 4.97; with Hep 3B cells (setting [1]) it was 5.36; with Hep 3B cells (setting [2]) it was 5.37; with Hep 3B cells (setting [3]), 5.54. Moreover, the pIC50 was 5.54 in the test on SKHEP1 and Hep 3B cells (Hep3B, Hep 3B, in combination with 0.6 ug/ml bi-cistronic ZF9-MQ1_ZF3-KRAB); 5.36 in the test on SKHEP1 and Hep 3B cells (Hep3B, Hep 3B, sorafenib without bi-cistronic ZF9-MQ1_ZF3-KRAB); 4.97 with SKHEP1 and Hep 3B cells (SK-HEP1, SKHEP1, in combination with 0.6 ug/ml bi-cistronic ZF9-MQ1_ZF3-KRAB); 4.91 in the test on SKHEP1 and Hep 3B cells (SK-HEP1, SKHEP1, sorafenib without bi-cistronic ZF9-MQ1_ZF3-KRAB). The IC50 of sorafenib result is “did not change significantly” with SKHEP1 and Hep 3B cells (Hep 3B); “did not change significantly” with SKHEP1 and Hep 3B cells (SKHEP1). The “average tumor volume at the study termination” value in the test on subcutaneous H460 tumors is 752 mm^3.
